Data reported in PubChem BioAssay AID248 (DTP/NCI, 2004).
Several values for one entry are separate records, joined by “and”; a condition that tells them apart may be missing. Equal values may be shown once. Inconclusive results and toxic doses are left out. Rule as the data show it: active = T/C of 150% or more; inactive = T/C below 125%.

Test system: L1210 leukemia ip in BDF1 mice, survival T/C
Assay: NCI In Vivo Anticancer Drug Screen. Data for tumor model L1210 Leukemia (intraperitoneal) in B6D2F1 (BDF1) mice
Conditions: endpoint: mean survival time, higher = longer survival
Procedure, shortened: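 Ratio derived from survival: compound-dosed mice over vehicle-dosed mice, all bearing a transplantable tumor.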

[1] = dose: 100.0 mg/kg/injection, schedule: Q01DX001 (ip), vehicle: other
[2] = dose: 200.0 mg/kg/injection, schedule: Q01DX001 (ip), vehicle: other
[3] = dose: 50.0 mg/kg/injection, schedule: Q01DX009 (ip), vehicle: saline
[4] = dose: 100.0 mg/kg/injection, schedule: Q01DX009 (ip), vehicle: saline
[5] = dose: 100.0 mg/kg/injection, schedule: Q04DX003 (ip), vehicle: saline
[6] = dose: 200.0 mg/kg/injection, schedule: Q01DX009 (ip), vehicle: saline
[7] = dose: 200.0 mg/kg/injection, schedule: Q04DX003 (ip), vehicle: saline
[8] = dose: 400.0 mg/kg/injection, schedule: Q01DX009 (ip), vehicle: saline
[9] = dose: 400.0 mg/kg/injection, schedule: Q04DX003 (ip), vehicle: saline
[10] = dose: 100.0 mg/kg/injection, schedule: Q04DX003 (ip), vehicle: saline with Tween-80
[11] = dose: 200.0 mg/kg/injection, schedule: Q04DX003 (ip), vehicle: saline with Tween-80
[12] = dose: 400.0 mg/kg/injection, schedule: Q04DX003 (ip), vehicle: saline with Tween-80
[13] = dose: 100.0 mg/kg/injection, schedule: Q04DX003 (ip), vehicle: Klucel (hydroxypropylcellulose) (HPC)
[14] = dose: 200.0 mg/kg/injection, schedule: Q04DX003 (ip), vehicle: Klucel (hydroxypropylcellulose) (HPC)
[15] = dose: 400.0 mg/kg/injection, schedule: Q04DX003 (ip), vehicle: Klucel (hydroxypropylcellulose) (HPC)
[16] = dose: 100.0 mg/kg/injection, schedule: Q04DX002 (ip), vehicle: Klucel (hydroxypropylcellulose) (HPC)
[17] = dose: 200.0 mg/kg/injection, schedule: Q04DX002 (ip), vehicle: Klucel (hydroxypropylcellulose) (HPC)
[18] = dose: 100.0 mg/kg/injection, schedule: Q04DX002 (ip), vehicle: saline with Tween-80
[19] = dose: 200.0 mg/kg/injection, schedule: Q04DX002 (ip), vehicle: saline with Tween-80
[20] = dose: 400.0 mg/kg/injection, schedule: Q04DX002 (ip), vehicle: saline with Tween-80
[21] = dose: 100.0 mg/kg/injection, schedule: Q01DX009 (ip), vehicle: saline with Tween-80
[22] = dose: 200.0 mg/kg/injection, schedule: Q01DX009 (ip), vehicle: saline with Tween-80

Measured: T/C

O=C(CCl)NCc1ccc(Cl)cc1
inactive: dose: 50.0 mg/kg/injection, schedule: Q01DX001 (ip), vehicle: other 102 % of control | [1] 93 % of control | [2] 102 % of control

CCCCC(CCCC)NC(C)COC(=O)c1ccc(N)cc1 (configuration not stated)
inactive: dose: 75.0 mg/kg/injection, schedule: Q01DX001 (ip), vehicle: carboxymethylcellulose (CMC) 104 % of control | dose: 150.0 mg/kg/injection, schedule: Q01DX001 (ip), vehicle: carboxymethylcellulose (CMC) 100 % of control | dose: 300.0 mg/kg/injection, schedule: Q01DX001 (ip), vehicle: carboxymethylcellulose (CMC) 101 % of control

CSc1cc(C)c(OC(=O)Nc2cc(C)ccc2C)c(C)c1
inactive: dose: 25.0 mg/kg/injection, schedule: Q01DX009 (ip), vehicle: saline 98 % of control | [3] 93 % of control | [4] 91 % of control | [5] 107 % of control | [6] 91 % of control | [7] 98 % of control | [8] 106 % of control | [9] 95 % of control

COc1ccc(COc2ccc(Cl)cc2)cc1OC
inactive: [10] 109 % of control | [11] 98 % of control | [12] 101 % of control

COc1ccc(Sc2ccccc2N)c([N+](=O)[O-])c1
inactive: [13] 100 % of control | [14] 97 % of control | [15] 92 % of control

Cc1ccc(C)c(OC2CCCCC2=O)c1 (configuration not stated)
inactive: dose: 100.0 mg/kg/injection, schedule: Q01DX001 (ip), vehicle: saline 100 % of control | dose: 200.0 mg/kg/injection, schedule: Q01DX001 (ip), vehicle: saline 100 % of control | dose: 400.0 mg/kg/injection, schedule: Q01DX001 (ip), vehicle: saline 91 % of control

CCSC1(SCC)C2(CCCCC2)C(=O)C12CCCCC2
inactive: [16] 93 % of control | [17] 96 % of control | dose: 400.0 mg/kg/injection, schedule: Q04DX002 (ip), vehicle: Klucel (hydroxypropylcellulose) (HPC) 96 % of control

CC(=O)c1ccccc1C(=O)O
inactive: dose: 50.0 mg/kg/injection, schedule: Q04DX003 (ip), vehicle: Klucel (hydroxypropylcellulose) (HPC) 98 % of control | [13] 94 % of control | [14] 96 % of control

CC(N)(CO)C(=O)O (configuration not stated)
inactive: [4] 100 % of control | [6] 105 % of control | [8] 107 % of control

CCCNC(=O)Oc1ccc(SC)cc1
inactive: [1] 96 % of control | dose: 100.0 mg/kg/injection, schedule: Q01DX009 (ip), vehicle: other 94 % of control and 99 % of control | dose: 100.0 mg/kg/injection, schedule: Q04DX002 (ip), vehicle: other 93 % of control and 97 % of control | [18] 100 % of control | [10] 107 % of control | [2] 98 % of control | dose: 200.0 mg/kg/injection, schedule: Q01DX009 (ip), vehicle: other 103 % of control | dose: 200.0 mg/kg/injection, schedule: Q04DX002 (ip), vehicle: other 97 % of control and 103 % of control | [19] 113 % of control | [11] 105 % of control | dose: 400.0 mg/kg/injection, schedule: Q01DX009 (ip), vehicle: other 89 % of control | dose: 400.0 mg/kg/injection, schedule: Q04DX002 (ip), vehicle: other 108 % of control and 86 % of control | [20] 106 % of control | [12] 100 % of control

COCN(C(=O)CCl)c1c(C)cccc1C(C)(C)C
inactive: [21] 95 % of control | [22] 97 % of control | dose: 400.0 mg/kg/injection, schedule: Q01DX009 (ip), vehicle: saline with Tween-80 93 % of control

COC1OC(COS(C)(=O)=O)C(O)C(OS(C)(=O)=O)C1OS(C)(=O)=O (configuration not stated)
inactive: dose: 50.0 mg/kg/injection, schedule: Q04DX002 (ip), vehicle: Klucel (hydroxypropylcellulose) (HPC) 93 % of control | [16] 93 % of control | [17] 101 % of control

Cc1nc2ccc(O)cc2cc1CO
inactive: [3] 100 % of control | [4] 87 % of control | [5] 104 % of control | [6] 89 % of control | [7] 103 % of control | [8] 113 % of control | [9] 109 % of control

CCCC(CCC)(C(N)=O)C(=O)O
inactive: [4] 102 % of control | [6] 100 % of control | [8] 92 % of control

C=C1C(=O)O[C@@H]2/C=C(/C)[C@@]3(O)C=C[C@](C)(C[C@@H](OC(=O)/C(=C\C)COC(C)=O)[C@@H]12)O3
inactive: dose: 0.06 mg/kg/injection, schedule: Q01DX009 (ip), vehicle: carboxymethylcellulose (CMC) 102 % of control | dose: 0.12 mg/kg/injection, schedule: Q01DX009 (ip), vehicle: carboxymethylcellulose (CMC) 101 % of control | dose: 0.25 mg/kg/injection, schedule: Q01DX009 (ip), vehicle: carboxymethylcellulose (CMC) 98 % of control

CCOC(=O)c1cnc(SC)nc1Nc1ccc(Br)cc1
inactive: dose: 50.0 mg/kg/injection, schedule: Q01DX009 (ip), vehicle: Klucel (hydroxypropylcellulose) (HPC) 93 % of control | dose: 100.0 mg/kg/injection, schedule: Q01DX009 (ip), vehicle: Klucel (hydroxypropylcellulose) (HPC) 92 % of control | [13] 124 % of control | dose: 200.0 mg/kg/injection, schedule: Q01DX009 (ip), vehicle: Klucel (hydroxypropylcellulose) (HPC) 88 % of control | [14] 124 % of control | [15] 87 % of control

COC(=O)c1cccc(OC)c1-c1c(OC)cccc1C(=O)OC
inactive: dose: 100.0 mg/kg/injection, schedule: Q01DX001 (ip), vehicle: Klucel (hydroxypropylcellulose) (HPC) 105 % of control | dose: 200.0 mg/kg/injection, schedule: Q01DX001 (ip), vehicle: Klucel (hydroxypropylcellulose) (HPC) 103 % of control | dose: 400.0 mg/kg/injection, schedule: Q01DX001 (ip), vehicle: Klucel (hydroxypropylcellulose) (HPC) 102 % of control

CCCCCCC(=O)N1CCOCC1
inactive: dose: 25.0 mg/kg/injection, schedule: Q04DX002 (ip), vehicle: saline 108 % of control | dose: 50.0 mg/kg/injection, schedule: Q04DX002 (ip), vehicle: saline 101 % of control | dose: 100.0 mg/kg/injection, schedule: Q04DX002 (ip), vehicle: saline 93 % of control and 92 % of control

Oc1ccc2ccccc2c1/C=C1/C=Nc2ccccc21
inactive: [18] 88 % of control | [19] 88 % of control | [20] 103 % of control

C=CN1C(=O)N(C=C)C(C)(CC(C)C)C1=O (configuration not stated)
inactive: dose: 50.0 mg/kg/injection, schedule: Q01DX009 (ip), vehicle: saline with Tween-80 104 % of control | [21] 103 % of control | [10] 92 % of control | [22] 103 % of control | [11] 92 % of control

CCN=C(N)c1ccc(NC(=O)Nc2ccc(NC(=O)Nc3ccc(C(N)=NCC)cc3)cc2)cc1
inactive: dose: 0.31 mg/kg/injection, schedule: Q01DX Z (ip), vehicle: carboxymethylcellulose (CMC) 98 % of control | dose: 0.62 mg/kg/injection, schedule: Q01DX Z (ip), vehicle: carboxymethylcellulose (CMC) 97 % of control | dose: 1.25 mg/kg/injection, schedule: Q01DX Z (ip), vehicle: carboxymethylcellulose (CMC) 90 % of control | dose: 2.5 mg/kg/injection, schedule: Q01DX Z (ip), vehicle: carboxymethylcellulose (CMC) 107 % of control

O=C(O)CC[P+](c1ccccc1)(c1ccccc1)c1ccccc1
inactive: [10] 90 % of control | [11] 98 % of control | [12] 93 % of control
